Results: patent US4959368A, “Therapeutic agent for neurological diseases” (Mitsui Petrochemical Industries Ltd., priority 1986, dated 1990)
Where two headings read alike, the source gives them in different places.

Columns and labels:
Acute toxicity, mouse = format: in vivo; conditions: in vivo, po, read-out: Presumed LD50
Description: (§1) The acute toxicity of the compounds of the invention was examined by the following method.
(§2) Male ddy-strain 5-week old mice and male Wistar-strain 8 week old rats, five per group, were used as experimental animals. Each of the compounds was dissolved in saline and administered perorally, and the toxicity of the compound was assessed 24 hours after the administration.

mice = test: Acute toxicity, mouse; format: in vivo; conditions: 24 hours
Description: as §1, §2

[1] = system: mouse neuroblastoma cell line neuro-2a; test: Activity on neuro-2a, cells with outgrown neurites; format: cell-based
How it was run: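 Mouse neuro-2a cells in DMEM with FCS exposed to compounds for 24 h (up to 6 concentrations, triplicate runs), glutaraldehyde-fixed and methylene blue-stained. Proportion of cells bearing a neurite at least twice the cell's long diameter counted microscopically over ≥200 cells.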

[2] = system: rats with crushed sciatic nerves; test: Curative effect on rats with crushed sciatic nerves; format: in vivo, rat (male Wistar)
Description: Curative effect on rats with crushed sciatic nerves:
The curing effect of the compound (I) of the invention was tested on rats having crushed scietic nerves as a model of peripheral nervous disorder using (1) a change in the action of the hind paw with the crushed sciatic nerves and (2) a change in the weight of the muscle as an index of the course of degeneration and regeneartion of peripheral nerves.
In the experiment, male Wistar rats (6 weeks old), seven per group, were used. The sciatic nerves were crushed by a method similar to the method of Yamatsu et al. (see Kiyomi Yamatsu, Takenori Kaneko, Akifumi Kitahara and Isao Ohkawa, Journal of Japanese Pharmacological Society, 72, 259-268 (1976) and the method of Hasegawa et al. (see Kazuo Hasegawa, Naoji Mikuni and Yutaka Sakai, Journal of Japanese Pharmacological Society, 74, 721-734 (1978). Specifically, under anesthesia with pentobarbital (40 mg/kg, i.p.), the left side sciatic nerve was exposed at the femur and that site of the exposed scietic nerve which was 5 mm to the center from the branched part between the N. tibialis and the N. suralis was crushed using a modified artery, klomme, having a width of 2 mm and a gap of 0.1 mm. After the operation, the rats were assigned to the test groups at random.
Compound No. 408 was selected as the compound (I) of the invention and intraperitoneally administered to the rats once a day from the day of operation to the 22nd day. A group to which mecobalamin (made by Gedeon Richter Ltd.) was administered and a group to which 0.9% saline was administered were used as controls. The following items were measured with the lapse of time (on the 1st, 4th, 7th, 10th, 14th, 17th, 21st, and 23rd days after the crushing of the scietic nerves).
(1) Change in the action of the side of the hind paw with the crushed scietic nerve:
By a method similar to the method of Hasegawa [Hasegawa, K., Experientia, 34, 750-751 (1978)], the distance between the first and fifth digits of the hind paw was measured.
The ratio of the measured distance to the normal distance was calculated and expressed in percentage (%).
(2) Change in the weight of muscle
It is known that removal of a nerve or its disorder causes atrophy of the muscle which is under its control, and the atrophy is gradually cured by re-control by the nerve. For this reason, a change in the weight of the muscle, which is quantitative, was selected as an index. Twenty-three days after the operation, the soleus muscles of both sides of paws were extracted under anesthesia with pentobarbital, and their weights were measured. The ratio of the weight of the soleus muscle on the crushed side to that of normal side was calculated and expressed in percentage (%).

[3] = Table 3 Run No. 2, 0.1 mM, control 1.9 ± 0.9

CCOC(=O)c1cnc(N2CCNCC2)nc1N [Compound 120]
LD50 at 24 h (Acute toxicity, mouse; Table 6, p.o.): 550 to 1000 mg/kg
Number of dead animals/number of test animals (mice; Table 6, 300 mg/kg p.o.): 0/5
Number of dead animals/number of test animals (mice; Table 6, 500 mg/kg p.o.): 1/5
Number of dead animals/number of test animals (mice; Table 6, 1000 mg/kg p.o.): 4/5
Cells having neurites with a length at least twice the long diameter of cell/total number of cells [1, 3]: 10.2 ± 3.7%
Cells having neurites with a length at least twice the long diameter of cell/total number of cells ([1]; Table 3 Run No. 10, 0.003 mM, control 1.7 ± 0.7): 2.6 ± 0.6%
Cells having neurites with a length at least twice the long diameter of cell/total number of cells ([1]; Table 3 Run No. 10, 0.1 mM, control 1.7 ± 0.7): 6.5 ± 1.7%

CC(C)n1ccc2nc(N3CCNCC3)ncc2c1=O [Compound 713]
LD50 at 24 h (Acute toxicity, mouse; Table 6, p.o.): > 1000 mg/kg
Number of dead animals/number of test animals (mice; Table 6, 300 mg/kg p.o.): 0/5
Number of dead animals/number of test animals (mice; Table 6, 500 mg/kg p.o.): 0/5
Number of dead animals/number of test animals (mice; Table 6, 1000 mg/kg p.o.): 2/5

CCCn1ccc2nc(N3CCNCC3)ncc2c1=O [Compound 715]
LD50 at 24 h (Acute toxicity, mouse; Table 6, p.o.): 550 to 1000 mg/kg
Number of dead animals/number of test animals (mice; Table 6, 300 mg/kg p.o.): 0/5
Number of dead animals/number of test animals (mice; Table 6, 500 mg/kg p.o.): 0/5
Number of dead animals/number of test animals (mice; Table 6, 1000 mg/kg p.o.): 4/5

CCCCOc1ccnc(N2CCNCC2)n1 [Compound 128]
LD50 at 24 h (Acute toxicity, mouse; Table 6, p.o.): 300 to 550 mg/kg
Number of dead animals/number of test animals (mice; Table 6, 300 mg/kg p.o.): 0/5
Number of dead animals/number of test animals (mice; Table 6, 500 mg/kg p.o.): 3/5
Number of dead animals/number of test animals (mice; Table 6, 1000 mg/kg p.o.): 4/5
Cells having neurites with a length at least twice the long diameter of cell/total number of cells ([1]; Table 3 Run No. 1, 0.028 μM, control 2.2 ± 0.8): 4.4 ± 0.7%
Cells having neurites with a length at least twice the long diameter of cell/total number of cells ([1]; Table 3 Run No. 1, 0.29 μM, control 2.2 ± 0.8): 3.4 ± 0.6%
Cells having neurites with a length at least twice the long diameter of cell/total number of cells ([1]; Table 3 Run No. 1, 28 μM, control 2.2 ± 0.8): 5.2 ± 0.9%

O=c1[nH]ccc2nc(N3CCNCC3)ncc12 [Compound 701]
LD50 at 24 h (Acute toxicity, mouse; Table 6, p.o.): 300 to 550 mg/kg
Number of dead animals/number of test animals (mice; Table 6, 300 mg/kg p.o.): 0/5
Number of dead animals/number of test animals (mice; Table 6, 500 mg/kg p.o.): 3/5
Number of dead animals/number of test animals (mice; Table 6, 1000 mg/kg p.o.): 5/5
Cells having neurites with a length at least twice the long diameter of cell/total number of cells ([1]; Table 3 Run No. 7, 0.03 mM, control 2.5 ± 0.7): 6.8 ± 0.8%
Cells having neurites with a length at least twice the long diameter of cell/total number of cells ([1]; Table 3 Run No. 7, 0.5 mM, control 2.5 ± 0.7): 42.5 ± 1.8%
Cells having neurites with a length at least twice the long diameter of cell/total number of cells ([1]; Table 3 Run No. 7, 1 mM, control 2.5 ± 0.7): 57.2 ± 1.2%
Cells having neurites with a length at least twice the long diameter of cell/total number of cells ([1]; Table 3 second Run No. 5, 0.1 mM, control 4.5 ± 0.3): 16.2 ± 1.2%

Cc1nc(N2CCNCC2)nc2c1CC(=O)N2C [Compound 468]
LD50 at 24 h (Acute toxicity, mouse; Table 7, p.o.): > 1000 mg/kg
Number of dead animals/number of test animals (mice; Table 7, 1000 mg/kg p.o.): 1/5
Cells having neurites with a length at least twice the long diameter of cell/total number of cells ([1]; Table 3 Run No. 10, 0.3 mM, control 1.7 ± 0.7): 5.8 ± 0.8%
Cells having neurites with a length at least twice the long diameter of cell/total number of cells ([1]; Table 3 Run No. 10, 1 mM, control 1.7 ± 0.7): 15.7 ± 0.5%

C/C1=C2/[N-][C@H]([C@H](CC(N)=O)[C@@]2(C)CCC(=O)NC[C@@H](C)OP(=O)([O-])O[C@H]2[C@@H](O)[C@@H](n3cnc4cc(C)c(C)cc43)O[C@@H]2CO)[C@]2(C)N=C(/C(C)=C3N=C(/C=C4N=C1[C@@H](CCC(N)=O)C\4(C)C)[C@@H](CCC(N)=O)[C@]\3(C)CC(N)=O)[C@@H](CCC(N)=O)[C@]2(C)CC(N)=O.[CH3-].[Co+3] [Mecobalamin, mecobalamin, reference compound]
Rate of recovery of the interdigit distance ([2]; 21st day, 0.5 mg/kg ip, saline 62.0 ± 2.4, ***P < 0.001): 79.1 ± 2.6%
Rate of recovery of the interdigit distance ([2]; 23rd day, 0.5 mg/kg ip, saline 71.1 ± 3.4, **P < 0.01): 88.3 ± 4.0%
interdigit distance, recovery versus saline ([2]; in words, 21st day): apparent tendency to quicker recovery
Rate of recovery in muscle weight ([2]; soleus muscle, 23rd day, 0.5 mg/kg ip, saline 51.8 ± 1.2): 55.0 ± 3.5%

O=C1Cc2cnc(N3CCNCC3)nc2N1 [Compound 424]
LD50 at 24 h (Acute toxicity, mouse; Table 7, p.o.): > 1000 mg/kg
Number of dead animals/number of test animals (mice; Table 7, 1000 mg/kg p.o.): 0/5
Cells having neurites with a length at least twice the long diameter of cell/total number of cells ([1]; Table 3 first Run No. 5, 0.5 mM, no control given): 12.6 ± 1.1%
Cells having neurites with a length at least twice the long diameter of cell/total number of cells ([1]; Table 3 first Run No. 5, 1 mM, no control given): 27.1 ± 2.1%

CCOC(=O)c1cnc(N2CCNCC2)nc1C(=O)OCC [Compound 144]
LD50 at 24 h (Acute toxicity, mouse; Table 6, p.o.): 550 to 1000 mg/kg
Number of dead animals/number of test animals (mice; Table 6, 300 mg/kg p.o.): 0/5
Number of dead animals/number of test animals (mice; Table 6, 500 mg/kg p.o.): 0/5
Number of dead animals/number of test animals (mice; Table 6, 1000 mg/kg p.o.): 3/5
Cells having neurites with a length at least twice the long diameter of cell/total number of cells [1, 3]: 9.9 ± 1.5%
Cells having neurites with a length at least twice the long diameter of cell/total number of cells ([1]; Table 3 Run No. 2, 0.3 mM, control 1.9 ± 0.9): 19.4 ± 3.2%

CCn1cc(C=O)c2nc(N3CCNCC3)ncc2c1=O [Compound 744]
LD50 at 24 h (Acute toxicity, mouse; Table 6, p.o.): 550 to 1000 mg/kg
Number of dead animals/number of test animals (mice; Table 6, 500 mg/kg p.o.): 0/5
Number of dead animals/number of test animals (mice; Table 6, 1000 mg/kg p.o.): 3/5

COCCN1C(=O)Cc2cnc(N3CCNCC3)nc21 [Compound 428]
LD50 at 24 h (Acute toxicity, mouse; Table 7, p.o.): > 1000 mg/kg
Number of dead animals/number of test animals (mice; Table 7, 1000 mg/kg p.o.): 0/5
Cells having neurites with a length at least twice the long diameter of cell/total number of cells ([1]; Table 3 Run No. 3, 0.03 mM, control 3.9 ± 0.3): 6.7 ± 1.5%
Cells having neurites with a length at least twice the long diameter of cell/total number of cells ([1]; Table 3 Run No. 3, 0.3 mM, control 3.9 ± 0.3): 17.3 ± 0.8%
Cells having neurites with a length at least twice the long diameter of cell/total number of cells ([1]; Table 3 Run No. 3, 1 mM, control 3.9 ± 0.3): 30.1 ± 2.4%
Cells having neurites with a length at least twice the long diameter of cell/total number of cells ([1]; Table 3 Run No. 4, 0.1 mM, control 3.1 ± 0.2): 13.7 ± 2.1%
Cells having neurites with a length at least twice the long diameter of cell/total number of cells ([1]; Table 3 Run No. 4, 0.5 mM, control 3.1 ± 0.2): 27.2 ± 3.1%
Cells having neurites with a length at least twice the long diameter of cell/total number of cells ([1]; Table 3 Run No. 4, 1 mM, control 3.1 ± 0.2): 29.1 ± 2.4%
Cells having neurites with a length at least twice the long diameter of cell/total number of cells ([1]; Table 3 second Run No. 5, 0.3 mM, control 4.5 ± 0.3): 9.8 ± 2.3%
Cells having neurites with a length at least twice the long diameter of cell/total number of cells ([1]; Table 3 second Run No. 5, 0.5 mM, control 4.5 ± 0.3): 14.1 ± 1.5%
Cells having neurites with a length at least twice the long diameter of cell/total number of cells ([1]; Table 3 second Run No. 5, 1 mM, control 4.5 ± 0.3): 15.6 ± 1.0%
